The results in this text go back to patent US3966957A, “Method for controlling emesis with N-(1-substituted-3-pyrrolidinyl)benzamides and thiobenzamides” (A. H. Robins Company, Incorporated, priority 1974, dated 1976).

Each structure is given as a SMILES string.

For series [1], the system named is apomorphine-induced emesis. The series can be described thus: Reduction of apomorphine-induced emesis in dogs, subcutaneous administration. The format is in vivo, dog. The following applies: for ED50: Canis lupus familiaris, sc, read-out: ED50, Anti-Emetic Effect of Subcutaneous Administration. As for the experimental part:
(§1) The anti-emetic properties of the compounds of Formulae I and II were established using a modification of the methods of Chen and Ensor, J. Pharmac. Exp. Ther. 98: 245-250 (1950) and of Leonard et al, J. Pharmac. Exp. Ther. 154, 339-345 (1966). Drug activity was assessed by its ability to reduce the frequency of apomorphine-induced emesis in dogs. The dogs were prescreened for fairly constant emetic responses to the subcutaneous administration of 0.1 mg./kg. of apomorphine hydrochloride, and those which vomited five or more times in the 40-minute period after apomorphine administration were selected for drug studies.
Groups of three dogs were used in preliminary tests and for the determinations of time of peak drug effect. Dose response curves were usually obtained using four drug-treated groups; each group contained at least three dogs. The dogs were fed approximately 17 hours prior to a test. Drugs were administered and at suitable intervals the dogs received 0.1 mg/kg of apormorphine hydrochloride subcutaneously. Frequency of emesis was determined during the next 40 minutes and emesis was counted as the actual expulsion of stomach contents.
In oral studies, drugs were administered in gelatin capsules (controls received an empty capsule). In the subcutaneous studies, drugs were administered in distilled water and/or polyethylene glycol-300.
Dogs were re-used at intervals of not less than one week. The ED50 is the dose which reduces the frequency of emesis of drug treated dogs to a value 50% below that of controls. Mean frequency of emesis for each drug treated group was compared with a mean control value derived by pooling the prior control emetic frequencies for all dogs used on that test day. The difference is expressed as a percentage decrease relative to controls. The per cent decrease in mean frequency of emesis for each drug-treated group (ordinate) was plotted against log dose (abscissa) on semi-log graph sheets. The ED50 was calculated by the method of Goldstein (Biostatistics, An Introductory Test; Pages 156-161; The MacMillan Co., New York, 1964).
Three dogs selected as described above were injected subcutaneously with 5.0 mg./kg. (3.12 mg./kg. expressed as free base) of the test drug 4-amino-N-(1-cyclohexyl-3-pyrrolidinyl)-N-methyl-benzamide cyclohexane-sulfamate from compound Example 4. One hour later apormorphine hydrochloride was administered in doses of 0.1 mg./kg. subcutaneously. Complete blockage of emesis (-100%) was observed over the 40-minute period following administration of apomorphine hydrochloride. […] (0.27 mg./kg. expressed as free base) was established for subcutaneous administration of the test drug.
Using the technique described in the foregoing general procedure and pharmacology in Example 1 for subcutaneous evaluation of test drugs against apomorphine induced emesis, results for additional compounds were obtained as shown in Table 4.

The test system of series [2] is catalepsy. The series can be described thus: Catalepsy in rats (IP), modified Tedeschi procedure. Particulars: IP administration in rats, as free base (Table 7). The series is classed as in vivo, rat.
Protocol: (§2) Drugs were blind tested with positive and negative controls. […] The modified procedure is as follows.
(§3) Groups of six rats are dosed (IP) with drugs in saline solution and tested hourly over a six hour period. A phenothiazine or non-phenothiazine reference standard is tested concomitantly as a positive control; negative controls receive only the saline vehicle. After administration the rats are positioned hourly with each foot on a No. 7 rubber stopper. A rat is considered cataleptic if it remains immobile on the stoppers for five seconds or longer at two or more consecutive hourly observation intervals.
Series [3] concerns apomorphine-induced emesis. The series can be described thus: Reduction of apomorphine-induced emesis in dogs, oral administration. The series is classed as in vivo, dog. As for the experimental part: as §1
Groups of three dogs were used in preliminary tests and for the determinations of time of peak drug effect. Dose response curves were usually obtained using four drug-treated groups; each group contained at least three dogs. The dogs were fed approximately 17 hours prior to a test. […] Frequency of emesis was determined during the next 40 minutes and emesis was counted as the actual expulsion of stomach contents. […]
Dogs were re-used at intervals of not less than one week. […] The difference is expressed as a percentage decrease relative to controls. […] The ED50 was calculated by the method of Goldstein (Biostatistics, An Introductory Test; Pages 156-161; The MacMillan Co., New York, 1964). […]

Series [4] is described as follows: Catalepsy in rats (IP), modified Tedeschi procedure. The series is classed as in vivo, rat. Particulars: rat, in vivo; IP administration in rats; as free base (Table 7).
Protocol: as §2, §3

For the molecule `O=C(NC1CCN(c2ccccc2)C1)c1ccc([N+](=O)[O-])cc1` (stereo not drawn) [Example 3, N-(1-Phenyl-3-pyrrolidinyl)-4-nitrobenzamide], in series [1] (dogs, subcutaneous, dose level of 5 mg./kg. (Table 4 footnote a)), the reduction in emesis is listed as 50%.
On to `CN(C(=O)c1ccc(N)cc1)C1CCN(C2CCCCC2)C1` (stereo not drawn) [Example 4, 4-Amino-N-(1-cyclohexyl-3-pyrrolidinyl)-N-methylbenzamide Cyclohexanesulfamate], for which the “Catalepsy (As Free Base), ED50 or other: highest dose without catatonia” value in series [2] was “no catatonia to 125”. For the same molecule, the “change in frequency of apomorphine-induced emesis” value in series [1] (subcutaneous 5.0 mg./kg. (3.12 mg./kg. as free base), 1 h before apomorphine 0.1 mg./kg. s.c., 40-minute observation, dogs) is given as -100%. Further, the “change in apomorphine induced emesis” value in series [3] (oral 2.5 mg./kg. in capsules, 2 h before apomorphine 0.1 mg./kg. s.c.) is reported as -95%.
For `CC(=O)Nc1ccc(C(=O)NC2CCN(C3CCCCC3)C2)cc1` (stereo not drawn) [Example 7, N-(1-Cyclohexyl-3-pyrrolidinyl)-4-acetamidobenzamide], in series [1], the ED50 stood at 2.4 mg/kg.
On the same count and under the same terms, with `O=C(NC1CCN(C2CCCCC2)C1)c1ccc(F)cc1` (stereo not drawn) [Example 10] the figure was 0.15 mg/kg; with `O=C(NC1CCN(C2CCCCC2)C1)c1cc([N+](=O)[O-])cc([N+](=O)[O-])c1` (stereo not drawn) [Example 12], 0.15 mg/kg.
`Nc1ccc(C(=O)NC2CCN(C3CCCCC3)C2)cc1` (stereo not drawn) [Example 23]: the “Catalepsy (As Free Base), percent of rats cataleptic” value in series [2] (at 94.2 mg/kg) was 33%.
For the molecule `O=C(NC1CCN(C2CCCCC2)C1)c1ccccc1` (stereo not drawn) [Example 24], the reduction in emesis in series [3] (oral, dose level of 5 mg./kg. (Table 5 footnote a)) turned out to be 60%.
Consider `O=C(NC1CCN(C2CCCCC2)C1)c1ccc([N+](=O)[O-])cc1` (stereo not drawn) [Example 25], for which the ED50 in series [4] turned out to be 28 mg/kg.
Regarding `CN(C(=O)c1ccc([N+](=O)[O-])cc1)C1CCN(C2CCCCC2)C1` (stereo not drawn) [Example 27], in series [2], the “Catalepsy (As Free Base), ED50 or other: highest dose without catatonia” value is on record as “no catatonia to 100” and the lethal dose came out at 100 mg/kg.
